Data set [1] deals with Coagulation factor IX (Homo sapiens, UniProt P00740). Put plainly: Inhibition of human coagulation factor 9a using fluorescent peptide CH3SO2-D-CHG-Gly-Arg-AFC-AcoH as substrate.
Data set [2] deals with Coagulation factor X (Homo sapiens, UniProt P00742). Put plainly: Inhibition of human coagulation factor 10a using fluorescent peptide nAcetyl-KPR-AFC as substrate.
Data set [3] has as its system Plasma. The data set is described as follows: Anticoagulant activity in 0.1 pM recombinant coagulation factor 11a stimulated human CTI-citrated plasma assessed as inhibition of thrombin generation incubated for 5 mins by calibrated automated thrombogram analysis. The data set is classed as functional, cell-free.
The test system of data set [4] is Plasma. Put plainly: Anticoagulant activity in 0.3 pM recombinant coagulation factor 11a stimulated human CTI-citrated plasma assessed as inhibition of thrombin generation incubated for 5 mins by calibrated automated thrombogram analysis. The data set is classed as functional, cell-free.
Data set [5] has as its system Plasma. The data set is described as follows: Anticoagulant activity in 1 pM recombinant coagulation factor 11a stimulated human CTI-citrated plasma assessed as inhibition of thrombin generation incubated for 5 mins by calibrated automated thrombogram analysis. The data set is classed as functional, cell-free.
Data set [6] has as its system Plasma. The data set is described as follows: Anticoagulant activity in 3 pM recombinant coagulation factor 11a stimulated human CTI-citrated plasma assessed as inhibition of thrombin generation incubated for 5 mins by calibrated automated thrombogram analysis. The data set is classed as functional, cell-free.
Data set [7] concerns Plasma. The data set is described as follows: Anticoagulant activity in 10 pM recombinant coagulation factor 11a stimulated human CTI-citrated plasma assessed as inhibition of thrombin generation incubated for 5 mins by calibrated automated thrombogram analysis. The data set is classed as functional, cell-free.
Data set [8] deals with Plasma. The data set is described as follows: Anticoagulant activity in 0.3 pM tissue factor stimulated human CTI-citrated plasma assessed as inhibition of thrombin generation incubated for 5 mins by calibrated automated thrombogram analysis. The data set is classed as functional, cell-free.
Data set [9] has as its system Plasma. Put plainly: Anticoagulant activity in 1 pM tissue factor stimulated human CTI-citrated plasma assessed as inhibition of thrombin generation incubated for 5 mins by calibrated automated thrombogram analysis. The data set is classed as functional, cell-free.
Data set [10] has as its system Plasma. The data set is described as follows: Anticoagulant activity in 3 pM tissue factor stimulated human CTI-citrated plasma assessed as inhibition of thrombin generation incubated for 5 mins by calibrated automated thrombogram analysis. It counts as functional, cell-free.
Data set [11] concerns Plasma. The data set is described as follows: Anticoagulant activity in 10 pM tissue factor stimulated human CTI-citrated plasma assessed as inhibition of thrombin generation incubated for 5 mins by calibrated automated thrombogram analysis. The data set is classed as functional, cell-free.
The test system of data set [12] is Plasma. Put plainly: Anticoagulant activity in 20 pM tissue factor stimulated human CTI-citrated plasma assessed as inhibition of thrombin generation incubated for 5 mins by calibrated automated thrombogram analysis. The data set is classed as functional, cell-free.
Data set [13] in a line: Oral bioavailability in rat at 2 mg/kg. The data set is classed as ADME, organism-based. Particulars: in vivo.
Data set [14] relates to Rattus norvegicus. Put plainly: Dose normalized AUC in rat at 2 mg/kg, po. The data set is classed as ADME, organism-based. Conditions: in vivo.
The nature of data set [15]: Half life in rat at 2 mg/kg, po and 0.5 mg/kg, iv. The data set is classed as ADME, organism-based. Particulars: in vivo.
Data set [16] is described as follows: Clearance in rat at 2 mg/kg, po and 0.5 mg/kg, iv. It counts as ADME, organism-based. Conditions: in vivo.
For data set [17], the target named is Cytochrome P450 3A4 (Homo sapiens, UniProt P08684). The data set is described as follows: Inhibition of CYP3A4 (unknown origin). It counts as ADME.
Data set [18] has as its target Cytochrome P450 2D6 (Homo sapiens, UniProt P10635). Put plainly: Inhibition of CYP2D6 (unknown origin). It counts as ADME.
Data set [19] addresses Cytochrome P450 2C9 (Homo sapiens, UniProt P11712). The data set is described as follows: Inhibition of CYP2C9 (unknown origin). The data set is classed as ADME.
Data set [20] deals with T1, Cytochrome P450 2C8 (Homo sapiens, UniProt P10632).
T1 sequence (P10632 whole entry): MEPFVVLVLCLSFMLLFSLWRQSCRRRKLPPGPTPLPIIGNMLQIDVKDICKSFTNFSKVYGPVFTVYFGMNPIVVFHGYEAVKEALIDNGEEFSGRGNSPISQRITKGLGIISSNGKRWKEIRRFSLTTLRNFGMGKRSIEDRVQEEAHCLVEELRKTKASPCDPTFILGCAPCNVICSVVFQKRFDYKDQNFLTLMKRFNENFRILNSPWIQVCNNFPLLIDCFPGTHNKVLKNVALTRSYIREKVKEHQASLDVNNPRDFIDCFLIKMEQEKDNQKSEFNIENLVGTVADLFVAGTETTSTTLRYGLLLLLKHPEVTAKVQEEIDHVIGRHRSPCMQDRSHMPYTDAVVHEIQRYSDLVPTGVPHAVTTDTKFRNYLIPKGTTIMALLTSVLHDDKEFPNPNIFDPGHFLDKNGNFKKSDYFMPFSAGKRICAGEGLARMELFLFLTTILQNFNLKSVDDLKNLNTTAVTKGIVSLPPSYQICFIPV
The data set is described as follows: Inhibition of CYP2C8 (unknown origin). It counts as ADME.

The target of data set [21] is Voltage-gated inwardly rectifying potassium channel KCNH2 (Homo sapiens, UniProt Q12809).

A value given as a limit tells only on which side of the number the result lay.

Sequence of Cytochrome P450 2D6 (P10635 whole entry): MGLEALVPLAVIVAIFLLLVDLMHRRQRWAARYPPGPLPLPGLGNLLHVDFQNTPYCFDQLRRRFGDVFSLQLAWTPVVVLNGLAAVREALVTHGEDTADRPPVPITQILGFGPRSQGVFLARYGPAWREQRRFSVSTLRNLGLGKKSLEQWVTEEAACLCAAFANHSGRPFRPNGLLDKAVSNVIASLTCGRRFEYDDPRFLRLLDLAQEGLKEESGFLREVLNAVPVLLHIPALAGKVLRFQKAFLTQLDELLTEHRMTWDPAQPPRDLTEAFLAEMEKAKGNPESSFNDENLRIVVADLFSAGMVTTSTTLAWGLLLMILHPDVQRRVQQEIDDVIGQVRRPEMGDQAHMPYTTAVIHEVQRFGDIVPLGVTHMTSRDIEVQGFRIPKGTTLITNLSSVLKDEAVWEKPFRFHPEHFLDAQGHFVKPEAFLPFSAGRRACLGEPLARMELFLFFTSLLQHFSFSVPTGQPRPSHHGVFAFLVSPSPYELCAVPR
Sequence of Coagulation factor X (P00742 41-179 limits assumed): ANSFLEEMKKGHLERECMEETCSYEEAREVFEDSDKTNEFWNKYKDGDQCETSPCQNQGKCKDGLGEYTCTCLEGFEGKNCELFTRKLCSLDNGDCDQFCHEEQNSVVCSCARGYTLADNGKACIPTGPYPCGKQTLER
Sequence of Coagulation factor X (P00742 235-488 limits assumed): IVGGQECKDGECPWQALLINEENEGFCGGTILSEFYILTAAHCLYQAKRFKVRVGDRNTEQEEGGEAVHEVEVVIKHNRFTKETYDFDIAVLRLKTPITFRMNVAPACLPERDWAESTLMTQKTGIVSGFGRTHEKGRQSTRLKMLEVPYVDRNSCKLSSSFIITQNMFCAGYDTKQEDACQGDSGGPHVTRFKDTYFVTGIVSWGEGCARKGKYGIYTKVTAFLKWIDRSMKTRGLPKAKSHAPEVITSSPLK
Sequence of Voltage-gated inwardly rectifying potassium channel KCNH2 (Q12809 whole entry): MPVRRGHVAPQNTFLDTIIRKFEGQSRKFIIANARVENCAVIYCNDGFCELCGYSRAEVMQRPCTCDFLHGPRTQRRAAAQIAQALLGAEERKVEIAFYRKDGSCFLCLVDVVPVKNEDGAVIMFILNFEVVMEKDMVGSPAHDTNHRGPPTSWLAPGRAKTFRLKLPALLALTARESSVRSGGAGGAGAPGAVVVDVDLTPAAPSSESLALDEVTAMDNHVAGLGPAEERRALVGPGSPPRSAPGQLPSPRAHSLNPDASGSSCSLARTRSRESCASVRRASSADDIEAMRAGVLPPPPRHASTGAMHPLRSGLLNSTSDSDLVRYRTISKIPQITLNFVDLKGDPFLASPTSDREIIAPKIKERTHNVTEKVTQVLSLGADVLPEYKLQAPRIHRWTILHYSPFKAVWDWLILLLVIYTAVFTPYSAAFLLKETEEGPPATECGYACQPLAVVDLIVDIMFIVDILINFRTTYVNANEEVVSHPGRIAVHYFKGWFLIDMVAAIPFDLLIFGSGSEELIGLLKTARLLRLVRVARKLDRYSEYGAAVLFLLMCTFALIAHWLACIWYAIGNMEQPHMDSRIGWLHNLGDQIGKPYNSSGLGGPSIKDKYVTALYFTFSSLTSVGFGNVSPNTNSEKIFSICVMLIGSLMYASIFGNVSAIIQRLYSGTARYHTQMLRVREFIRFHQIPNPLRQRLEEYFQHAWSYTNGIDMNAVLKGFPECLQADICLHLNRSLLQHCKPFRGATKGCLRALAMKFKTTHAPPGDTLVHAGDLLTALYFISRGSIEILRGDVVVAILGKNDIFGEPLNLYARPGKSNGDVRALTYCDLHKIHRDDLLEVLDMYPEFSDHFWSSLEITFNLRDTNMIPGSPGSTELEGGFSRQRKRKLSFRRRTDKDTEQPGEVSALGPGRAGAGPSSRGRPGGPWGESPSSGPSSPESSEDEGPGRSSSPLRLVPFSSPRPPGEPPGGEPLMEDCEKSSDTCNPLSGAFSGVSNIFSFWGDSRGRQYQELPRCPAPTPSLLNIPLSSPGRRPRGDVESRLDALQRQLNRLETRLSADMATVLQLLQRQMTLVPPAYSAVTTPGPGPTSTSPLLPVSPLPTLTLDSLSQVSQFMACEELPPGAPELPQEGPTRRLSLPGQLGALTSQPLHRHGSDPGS
Sequence of Coagulation factor IX (P00740 47-191 limits assumed): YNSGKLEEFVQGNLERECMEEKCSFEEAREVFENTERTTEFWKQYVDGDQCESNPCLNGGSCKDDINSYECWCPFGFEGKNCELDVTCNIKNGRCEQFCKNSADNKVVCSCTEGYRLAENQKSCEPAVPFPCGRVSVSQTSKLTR
Sequence of Coagulation factor IX (P00740 227-461 limits assumed): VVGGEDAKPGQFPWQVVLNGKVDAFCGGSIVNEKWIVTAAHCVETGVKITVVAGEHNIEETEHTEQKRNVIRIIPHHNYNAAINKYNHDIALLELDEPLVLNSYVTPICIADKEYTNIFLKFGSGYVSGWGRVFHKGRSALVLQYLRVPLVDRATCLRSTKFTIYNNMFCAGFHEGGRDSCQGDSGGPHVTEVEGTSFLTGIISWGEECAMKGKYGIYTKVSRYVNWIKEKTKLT
Sequence of Cytochrome P450 2C9 (P11712 whole entry): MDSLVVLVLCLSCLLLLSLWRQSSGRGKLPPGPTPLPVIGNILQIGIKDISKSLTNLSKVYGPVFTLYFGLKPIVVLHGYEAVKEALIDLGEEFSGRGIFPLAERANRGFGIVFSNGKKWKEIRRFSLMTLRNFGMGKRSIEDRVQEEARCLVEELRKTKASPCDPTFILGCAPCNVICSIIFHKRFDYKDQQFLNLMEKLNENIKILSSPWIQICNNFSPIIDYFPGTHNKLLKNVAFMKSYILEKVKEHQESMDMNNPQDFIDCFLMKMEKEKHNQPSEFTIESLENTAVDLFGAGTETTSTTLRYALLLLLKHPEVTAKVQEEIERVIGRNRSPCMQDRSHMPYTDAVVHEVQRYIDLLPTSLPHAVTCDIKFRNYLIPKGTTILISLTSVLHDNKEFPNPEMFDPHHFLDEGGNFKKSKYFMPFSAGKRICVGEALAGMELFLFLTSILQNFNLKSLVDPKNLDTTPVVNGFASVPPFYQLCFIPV
Sequence of Cytochrome P450 3A4 (P08684 whole entry): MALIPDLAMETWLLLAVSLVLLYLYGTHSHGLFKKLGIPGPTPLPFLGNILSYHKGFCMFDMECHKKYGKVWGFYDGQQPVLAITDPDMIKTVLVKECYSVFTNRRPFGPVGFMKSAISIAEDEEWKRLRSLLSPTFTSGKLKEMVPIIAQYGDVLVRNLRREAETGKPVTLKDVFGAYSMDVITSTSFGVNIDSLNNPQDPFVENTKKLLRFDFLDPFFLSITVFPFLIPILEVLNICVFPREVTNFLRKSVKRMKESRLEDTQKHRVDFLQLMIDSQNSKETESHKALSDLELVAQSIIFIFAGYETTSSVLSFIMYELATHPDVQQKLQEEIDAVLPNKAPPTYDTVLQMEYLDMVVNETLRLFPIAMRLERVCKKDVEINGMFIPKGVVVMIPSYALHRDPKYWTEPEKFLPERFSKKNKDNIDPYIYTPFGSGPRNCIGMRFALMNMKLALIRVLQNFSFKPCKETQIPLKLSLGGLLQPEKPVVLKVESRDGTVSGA

Consider `Cc1ncn(-c2cc(Cl)c(C(=O)NC[C@@H](c3cccc(F)c3)c3ccc4c(C)ccc(F)c4n3)c(Cl)c2)n1`, for which the values for the Ki in [1] and in [2] were 0.0104 µM and more than 28.9 µM, respectively.
The matching figures for `Cc1cc2nc([C@@H](CNC(=O)c3ccc(-n4cnnc4)cc3Cl)c3cccnc3)[nH]c2cc1C`: 0.0154 µM and 1.6 µM.
Consider `COc1ccc(-n2nc(C(N)=O)c3c2C(=O)N(c2ccc(N4CCCCC4=O)cc2)CC3)cc1` [APIXABAN], for which the IC50 (usually the concentration at which inhibition is half-maximal) in data set [3] was found to be 0.0513 µM; in [4], 0.116 µM; in [5], 0.191 µM; in [6], 0.747 µM; in data set [7], 2.41 µM; in [8] it was 0.0476 µM. Further, the IC50 in data set [9] was 0.0337 µM; in data set [10], 0.0484 µM; in [11], 0.159 µM; in data set [12], 0.299 µM.
Consider `Cc1ncn(-c2cc(Cl)c(C(=O)NC[C@@H](c3cccc(F)c3)c3nc4cc(C)c(Cl)cc4[nH]3)c(Cl)c2)n1`, for which the Ki (as a rule, a measure of affinity in units of concentration, obtained from inhibition or displacement) was 0.0136 µM in [1] and 15.2 µM in data set [2].
Regarding `Cc1ncn(-c2cc(Cl)c(C(=O)NC[C@@H](c3cccc(F)c3)c3cnc4[nH]c(C)cc4c3)c(Cl)c2)n1`, the Ki in data set [1] was 0.0037 µM; in [2] it was more than 28.9 µM.
Regarding `Cc1ncn(-c2cc(Cl)c(C(=O)NC[C@@H](c3cccc(F)c3)c3ccc4[nH]c(C)nc4c3)c(Cl)c2)n1`, the figures for the Ki in data set [1] and in data set [2] were 0.0091 µM and 2.8 µM, respectively. Besides, the bioavailability – broadly, the share of a dose that reaches the circulation, judged against a reference dose that is usually intravenous – in data set [13] amounted to 11.1%. The AUC/dose in [14] was found to be 0.097 µM·h/mg/kg. The half-life (as a rule, the time needed for the level to fall by half in the phase considered) in [15] is 1.24 h. The same compound returned a clearance in [16] of 2.19 L/h/kg. The IC50 in data set [17] was more than 50 µM; in [18], 31.6 µM; in [19], 24.9 µM; in data set [20] it was 1.57 µM; in [3], 0.303 µM; in [4], 1.6 µM. In addition, the IC50 came out at 2.52 µM in data set [5]; 7.16 µM in data set [6]; 22.4 µM in data set [7]; 1.64 µM in [8]; 1.16 µM in [9]; 0.953 µM in [10]. The figures for the IC50 in data set [11], in data set [12] and in data set [21] were 1.85 µM, 1.9 µM and 19.9 µM, respectively.
`Cc1cc2nc([C@@H](CNC(=O)c3ccc(-n4cnnc4)cc3Cl)c3ccc(F)cc3)[nH]c2cc1C`: the Ki in data set [1] was determined as 0.0084 µM; in data set [2], 1.51 µM.
For `Cc1ncn(-c2cc(Cl)c(C(=O)NC[C@@H](c3cccc(F)c3)c3nc4ccc(Cl)cc4[nH]3)c(Cl)c2)n1`, the Ki in data set [1] turned out to be 0.0098 µM; in data set [2] it was 20.7 µM. Moreover, the bioavailability in data set [13] stood at 48.2%. Also, the AUC/dose in [14] is 1.74 µM·h/mg/kg. For the same compound, the half-life in data set [15] was 0.8 h. Besides, the clearance in data set [16] amounted to 0.526 L/h/kg. The IC50 in [17] was more than 50 µM; in data set [18], 30.4 µM; in [19], 19.8 µM; in [20], 5.28 µM.
`Cc1cc2nc([C@@H](CNC(=O)c3c(F)cc(-n4cnnc4)cc3Cl)c3ccccc3)[nH]c2cc1C`: the Ki came out at 0.0152 µM in data set [1] and 0.544 µM in data set [2].
Take `COc1cc2nc([C@@H](CNC(=O)c3c(Cl)cc(-n4cnc(C)n4)cc3Cl)c3cccc(F)c3)[nH]c2cc1Cl`: the Ki in data set [1] came out at 0.0029 µM; in [2] it was 1.93 µM. Besides, in data set [13], the bioavailability was found to be 7.89%. The AUC/dose in [14] worked out at 0.056 µM·h/mg/kg. This compound showed a half-life in data set [15] of 1.03 h. In [16], this compound showed a clearance of 2.53 L/h/kg. For the same compound, the IC50 in [17] is 33.3 µM; in [18] it was more than 50 µM; in data set [19], 9.09 µM; in data set [20], 0.456 µM; in data set [21], 10.9 µM.
`Cc1cc2nc([C@@H](CNC(=O)c3c(C)cc(-n4cnnc4)cc3Cl)c3ccccc3)[nH]c2cc1C`: the results for the Ki in data set [1] and in data set [2] were 0.008 µM and 0.195 µM, respectively.
As for `Cc1cc2nc([C@@H](CNC(=O)c3c(Cl)cc(-n4cnnc4)cc3Cl)c3ccccc3)[nH]c2cc1C`, the Ki in data set [1] turned out to be 0.0036 µM; in data set [2], 0.105 µM.
`Cc1ncn(-c2cc(Cl)c(C(=O)NC[C@@H](c3cccc(F)c3)c3cc(=O)c4c(C)ccc(F)c4[nH]3)c(Cl)c2)n1`: the Ki was 0.0033 µM in data set [1] and more than 28.9 µM in data set [2].
The matching figures for `Cc1cc2nc([C@@H](CNC(=O)c3ccc(-n4cnnc4)cc3Cl)c3ccccc3F)[nH]c2cc1C`: 0.0193 µM and 0.412 µM.
On to `COc1cc(-n2cnnc2)cc(Cl)c1C(=O)NC[C@@H](c1ccccc1)c1nc2cc(C)c(C)cc2[nH]1`, for which the Ki in [1] was determined as 0.0148 µM; in [2], 0.245 µM.
On to `Cc1cc2nc([C@@H](CNC(=O)c3c(Cl)cc(-n4cnnc4)cc3C(F)(F)F)c3ccccc3)[nH]c2cc1C`, for which the Ki in [1] came out at 0.0218 µM; in [2], 0.34 µM.
For the compound `Cc1ncn(-c2cc(Cl)c(C(=O)NC[C@@H](c3cccc(F)c3)c3nc4c(F)ccc(C)c4c(=O)[nH]3)c(Cl)c2)n1`, the Ki in data set [1] was 0.001 µM; in data set [2], more than 28.9 µM. The same compound had a bioavailability in data set [13] of 14.1%. The AUC/dose in data set [14] was determined as 0.284 µM·h/mg/kg. Moreover, the half-life in [15] was 1.12 h. Besides, in [16], the clearance worked out at 0.93 L/h/kg. For the same compound, the IC50 was more than 50 µM in data set [17]; more than 50 µM in data set [18]; 42.8 µM in [19]; 24.4 µM in data set [20]; more than 60 µM in data set [21].
Consider `Cc1ncn(-c2cc(Cl)c(C(=O)NC[C@@H](c3cccc(F)c3)c3nc4c(C)cc(Cl)cc4[nH]3)c(Cl)c2)n1`, for which the values for the Ki in data set [1] and in data set [2] were 0.0062 µM and more than 28.9 µM, respectively. In data set [13], this compound displayed a bioavailability of 57.3%. The AUC/dose in data set [14] was 4.36 µM·h/mg/kg. In [15], this compound showed a half-life of 1.66 h. Also, in [16], the clearance came to 0.23 L/h/kg. Moreover, the IC50 in [17] was more than 50 µM; in data set [18], more than 50 µM; in [19], 22.4 µM; in data set [20], 4.04 µM; in data set [21], 3.05 µM.
Consider `Cc1cc2nc([C@@H](CNC(=O)c3ccc(-n4cnnc4)cc3Cl)c3cccc(F)c3)[nH]c2cc1C`, for which the results for the Ki in data set [1] and in data set [2] were 0.0057 µM and 1.01 µM, respectively.
The matching figures for `Cc1ncn(-c2cc(Cl)c(C(=O)NC[C@@H](c3ccccc3)c3nc4cc(C)c(C)cc4[nH]3)c(Cl)c2)n1`: 0.0208 µM and 2.47 µM.

(Values after ChEMBL document CHEMBL3627714, “Development of a novel class of potent and selective FIXa inhibitors” (Bioorg Med Chem Lett, 2015).)
